Experimental data: patent publication US20170008888A1 (KYORIN PHARMACEUTICAL CO., LTD., priority 2014, published 2017)
Like-named read-outs stand apart in the source and are kept apart here.

Columns and labels:
[1] = tested on: diseased primary human synovial fibroblasts; assay: Cytokine response by primary human synovial fibroblasts stimulated with IL-17A, TNF-α or both; assay type: cell-based; conditions: Fibroblast, 48 h
Description: Primary synovial fibroblasts isolated from the knee of a patient diagnosed with rheumatoid arthritis/osteoarthritis were obtained from Asterand (Detroit, Mich.) and maintained in FGM-2 fibroblast growth medium (Lonza, Allendale, N.J.). Cells were seeded at approximately 1.6e4 cells/ml and incubated at 37° C. in a humidified atmosphere at 5% CO2 until the cells reached ˜90% confluence. Cells were pre-treated with the test compounds (10 μM down by ⅕ in a 4-point serial dilution series) for 1 h at 37° C. in a humidified atmosphere at 5% CO2. DMSO at a final concentration of 0.1% served as the non-inhibited control. […] Cells were stimulated with 10 ng/ml human recombinant IL-17A (eBioscience, San Diego, Calif.), 10 ng/ml TNF-α, (Cell Signaling Technology, Danvers, Mass.) or both, for 48 h. Supernatant was then collected and analyzed for cytokine concentrations using the Bio-Plex Pro Human Cytokine 17-Plex Panel supplemented with RANTES and VEGF Singleplex analytes (Bio-Rad Laboratories, Hercules, Calif.) according to the manufacturer's instructions. Magnetic beads were measured on the Bio-Plex MAGPIX multiplex reader instrument using the accompanying xPONENT 4.2 acquisition software (Bio-Rad Laboratories). Data were analyzed via the Bio-Plex Manager software v6.1 (Bio-Rad Laboratories).

TRIM33 = target: T1, TRIM33 (Homo sapiens, UniProt Q9UPN9); assay: Bromodomain binding assay: TRIM33
T1 construct: made in house; host or cells: E. coli host derived from the BL21 strain (T7 phage lysate)
Description: (§1) T7 phage strains displaying bromodomains were grown in parallel in 24-well blocks in an E. coli host derived from the BL21 strain. E. coli were grown to log-phase and infected with T7 phage from a frozen stock (multiplicity of infection=0.4) and incubated with shaking at 32° C. until lysis (90-150 minutes). The lysates were centrifuged (5,000×g) and filtered (0.2 μm) to remove cell debris. […] The liganded beads were blocked with excess biotin and washed with blocking buffer (SeaBlock (Pierce), 1% BSA, 0.05 Tween 20, 1 mM DTT) to remove unbound ligand and to reduce non-specific phage binding. […] Test compounds (T62 and 46) were prepared as 1000× stocks in 100% DMSO and subsequently diluted 1:10 in monoethylene glycol (MEG) to create stocks at 100× the screening concentration (resulting stock solution is 10% DMSO/90% MEG). The compounds were then diluted directly into the assays such that the final concentration of DMSO and MEG were 0.1% and 0.9%, respectively. All reactions were performed in polystyrene 96-well plates in a final volume of 0.135 ml. […] The bromodomain concentration in the eluates was measured by qPCR. Compounds were assayed for binding activity against a panel of 40 bromodomain-containing proteins.

BRDT = target: T2, BRDT (Homo sapiens, UniProt Q58F21); assay: Bromodomain binding assay: BRDT
T2 construct: read out by qPCR of the phage DNA
Description: as §1

[2] = +Both IL-17A + TNF-α, read-out: EC50 (μM), G-CSF
[3] = +Both IL-17A + TNF-α, read-out: EC50 (μM), IL-6
[4] = +Both IL-17A + TNF-α, read-out: EC50 (μM), IL-8
[5] = +Both IL-17A + TNF-α, read-out: EC50 (μM), RANTES
[6] = +IL-17A 10 ng/ml, read-out: EC50 (μM), G-CSF
[7] = +IL-17A 10 ng/ml, read-out: EC50 (μM), IL-6
[8] = +IL-17A 10 ng/ml, read-out: EC50 (μM), IL-8
[9] = +IL-17A 10 ng/ml, read-out: EC50 (μM), RANTES
[10] = +TNF-α 10 ng/ml, read-out: EC50 (μM), G-CSF
[11] = +TNF-α 10 ng/ml, read-out: EC50 (μM), IL-6
[12] = +TNF-α 10 ng/ml, read-out: EC50 (μM), IL-8
[13] = +TNF-α 10 ng/ml, read-out: EC50 (μM), RANTES

T1 sequence (Q9UPN9 957-1080 limits assumed): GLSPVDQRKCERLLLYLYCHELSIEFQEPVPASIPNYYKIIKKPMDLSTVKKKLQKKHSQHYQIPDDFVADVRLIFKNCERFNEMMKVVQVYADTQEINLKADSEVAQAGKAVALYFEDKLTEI

| SMILES | EC50 [1, 2] | EC50 [1, 3] | EC50 [1, 4] | EC50 [1, 5] | EC50 [1, 6] | EC50 [1, 7] | EC50 [1, 8] | EC50 [1, 9] | EC50 [1, 10] | EC50 [1, 11] | EC50 [1, 12] | EC50 [1, 13] | Kd (TRIM33) | Kd (BRDT) |
| --- | --- | --- | --- | --- | --- | --- | --- | --- | --- | --- | --- | --- | --- | --- |
| CCOc1cc(C(=O)N2CCC(N3CCN(C)CC3)CC2)ccc1Nc1cc2c(cn1)N(C)C(=O)c1ccccc1N2C [Compound 61] | > 10 µM | > 10 µM | > 10 µM | 1.35 µM | 2.59 µM | 1.67 µM | 0.87 µM | > 10 µM | 1.27 µM | 1.05 µM | 4.51 µM | 2.78 µM | – | – |
| CCOc1cc(C(=O)N2CC[C@@H](N(C)C)C2)ccc1Nc1cc2c(cn1)N(C)C(=O)c1ccccc1N2C [Compound 115] | > 10 µM | > 10 µM | > 10 µM | 1.88 µM | 2.67 µM | 1.04 µM | 0.39 µM | > 10 µM | 1.25 µM | 1.71 µM | > 10 µM | > 10 µM | – | – |
| CCOc1cc(C(=O)N[C@H]2CC[C@H](O)CC2)ccc1Nc1cc2c(cn1)N(C)C(=O)c1ccccc1N2C [Compound T62] | – | – | – | – | – | – | – | – | – | – | – | – | > 20000 nM | 397 nM |
